Laboratory results reported in US20020077328A1, “Selective cyclooxygenase-2 inhibitors and vasomodulator compounds for generalized pain and headache pain” (priority 2000, published 2002).

Test: Solubility of celecoxib and valdecoxib in various solvent liquids
Assay type: physicochemical
Method: Aliquots of a solvent liquid were then added dropwise in approximately 100 mg increments to the solid sample. The resulting mixture was vortexed and/or sonicated between aliquot additions. […] Solubility values preceded by the < symbol denote that, at the particular concentration shown, the mixture was still cloudy, i.e., not all of the drug was fully in dissolved form.

[1] = Labrasol ™ /DGME/propylene glycol laurate 40:40:20 w/w
[2] = Polyethylene glycol 400/water 1:1 w/w
[3] = Polyethylene glycol 400/water 2:1 w/w
[4] = Propylene glycol laurate/Labrasol ™ 1:1 w/w
[5] = Tagat ™ TO/Capmul ™ MCM 1:1 w/w

In the case of `Cc1ccc(-c2cc(C(F)(F)F)nn2-c2ccc(S(N)(=O)=O)cc2)cc1` [celecoxib], the Solubility (Arlacel ™ 186) is reported as 13 mg/g, the Solubility (Capmul ™ MCM) is reported as 19 − 21 mg/g and the Solubility (Cremophor ™ EL) is reported as 36 mg/g. The Solubility (DGME/water 1:1 w/w) was 3 mg/g, the Solubility (DGME/water 2:1 w/w) was 42 mg/g and the Solubility (Ethyl caprylate) was 25 mg/g. The Solubility (Labrasol ™) was 64 mg/g, the Solubility (Labrasol ™ /DGME 1:1 w/w) was 335 mg/g and the Solubility (Labrasol ™ /DGME/propylene glycol laurate 35:35:30 w/w) was 266 mg/g. For the same compound, the Solubility [1] was 288 − 297 mg/g, the Solubility (Labrasol ™ /DGME/propylene glycol laurate 45:45:10 w/w) was 313 − 325 mg/g and the Solubility (Miglyol ™ 812) was 6 − 12 mg/g. For the same compound, the Solubility (Polyethylene glycol 400) was 304 mg/g, the Solubility [2] was less than 1 mg/g and the Solubility [3] was 6 mg/g. For the same compound, the Solubility (Polysorbate 80) was 73 mg/g, the Solubility (Propylene glycol) was 23 − 41 mg/g and the Solubility (Propylene glycol laurate) was 18 mg/g. For the same compound, the Solubility [4] was 58 mg/g, the Solubility (Tagat ™ /Capmul ™ MCM/DGME 35:35:30 w/w) was 212 mg/g and the Solubility (Tagat ™ /Capmul ™ MCM/DGME 58:12:30 w/w) was 274 mg/g. The Solubility (Tagat ™ TO) was 24 − 40 mg/g, the Solubility [5] was 34 − 52 mg/g and the Solubility (Tetraethylene glycol dimethyl ether) was 188 mg/g. The Solubility (Triethylene glycol monoethyl ether) was 170 mg/g.

With `Cc1onc(-c2ccccc2)c1-c1ccc(S(N)(=O)=O)cc1` [valdecoxib] the “Advantage in solubility for DGME over propylene glycol” value was “approximately tenfold”, the Solubility (Capmul ™ MCM) was 13 mg/g and the Solubility (DGME/water 1:1 w/w) was 6 mg/g. The Solubility (DGME/water 2:1 w/w) was 32 mg/g, the Solubility (Diethylene glycol monoethyl ether (DGME)) was 120 mg/g and the Solubility (Labrasol ™) was 34 mg/g. For the same compound, the Solubility [1] was 130 mg/g, the Solubility (Polyethylene glycol 400) was 50 − 85 mg/g and the Solubility [2] was 1 mg/g. The Solubility [3] was 13 mg/g, the Solubility (Propylene glycol) was 10 − 20 mg/g and the Solubility (Propylene glycol laurate) was 22 mg/g. It also gave a Solubility [4] of 42 mg/g, a Solubility (Tagat ™ TO) of 23 mg/g and a Solubility [5] of 24 mg/g.
